US10125095B2, “Abscisic acid derivative” (NATIONAL UNIVERSITY CORPORATION SHIZUOKA UNIVERSITY, priority 2014, dated 2018)

How the values were obtained:
PYL1 = target: T1, PYL1 (Arabidopsis thaliana, UniProt Q8VZS8); assay: Protein dephosphorylation enzyme activity test, PYL1; type: biochemical, thale cress; conditions: control = 100%
T1 construct: 6xHis (N); made in house; host or cells: Escherichia coli BL21-codonplus(DE3)-RIPL (PYL); BL21(DE3)pLysS (HAB1)
T1 sequence (Q8VZS8 1-221): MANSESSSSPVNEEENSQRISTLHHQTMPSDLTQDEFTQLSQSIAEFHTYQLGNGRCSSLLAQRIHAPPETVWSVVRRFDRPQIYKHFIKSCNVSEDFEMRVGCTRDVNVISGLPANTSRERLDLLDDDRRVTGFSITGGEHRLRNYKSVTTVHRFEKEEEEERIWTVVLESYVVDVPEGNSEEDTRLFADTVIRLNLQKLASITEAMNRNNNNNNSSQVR
Description: (§1) A plasmid (pGex-2T-GST-HAB1 or pET28-6×His-PYL) encoded with PYR/PYL/RCAR proteins (PYL, abscisic acid receptor) or protein dephosphorylation enzyme HAB1 of thale cress was transformed to Escherichia coli (HAB1:BL21(DE3)pLysS, PYL:BL21-codonplus(DE3)-RIPL). Isopropyl-β-thiogalactopyranoside was added to the culture broth, which had been subjected to pre-culture (30° C., 180 rpm, 15 hours) and main culture (30° C., 180 rpm, 4 hours), and the protein-expressed (16° C., 150 rpm, 18 hours) crude enzyme solution was purified using FPLC thereby preparing the recombined PYL (PYR1, PYL1-6, PYL8-10) and HAB1. β-Mercaptoethanol, a manganese chloride aqueous solution, HAB1, PYL, a solution of the sample in dimethylsulfoxide and ultrapure water were sequentially added to a 96-well plate, allowed to stand at 22° C. for 30 minutes. Subsequently p-nitrophenylphosphate, which is the artificial substrate of HAB1, was added thereto to start the reaction, and the plate was placed in a microplate reader (TECAN, Infinite™ N200 NanoQuant). The absorbance at 405 nm due to p-nitrophenol, which is the hydrolysate of p-nitrophenylphosphate, was measured 3 minutes later from the reaction initiation, and HAB1 activity was calculated by the following formula (2). Note that the fraction to which only dimethylsulfoxide was added was considered to be the control and the activity thereof was defined as 100%. […] HAB1 specific activity (%)=Absorbance when sample was added/Absorbance of control×100 (2)

PYL4 = target: T2, PYL4 (Arabidopsis thaliana, UniProt O80920); assay: Protein dephosphorylation enzyme activity test, PYL4; type: biochemical, thale cress; conditions: control = 100%
T2 construct: 6xHis (N); made in house; host or cells: Escherichia coli BL21-codonplus(DE3)-RIPL (PYL); BL21(DE3)pLysS (HAB1)
T2 sequence (O80920 1-207): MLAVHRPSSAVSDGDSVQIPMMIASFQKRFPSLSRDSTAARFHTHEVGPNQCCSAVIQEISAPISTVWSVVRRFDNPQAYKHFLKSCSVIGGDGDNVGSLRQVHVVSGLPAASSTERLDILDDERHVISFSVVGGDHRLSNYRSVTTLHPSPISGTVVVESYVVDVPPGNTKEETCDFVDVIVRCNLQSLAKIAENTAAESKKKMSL
Description: as §1

PYL5 = target: T3, PYL5 (Arabidopsis thaliana, UniProt Q9FLB1); assay: Protein dephosphorylation enzyme activity test, PYL5; type: biochemical, thale cress; conditions: control = 100%
T3 construct: 6xHis (N); made in house; host or cells: Escherichia coli BL21-codonplus(DE3)-RIPL (PYL); BL21(DE3)pLysS (HAB1)
T3 sequence (Q9FLB1 1-203): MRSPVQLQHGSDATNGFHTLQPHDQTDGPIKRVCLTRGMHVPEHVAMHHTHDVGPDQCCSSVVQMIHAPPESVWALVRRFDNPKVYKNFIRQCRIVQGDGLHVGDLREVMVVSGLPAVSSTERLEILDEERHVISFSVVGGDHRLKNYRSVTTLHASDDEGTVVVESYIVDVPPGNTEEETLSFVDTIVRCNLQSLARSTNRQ
Description: as §1

PYL6 = target: T4, PYL6 (Arabidopsis thaliana, UniProt Q8S8E3); assay: Protein dephosphorylation enzyme activity test, PYL6; type: biochemical, thale cress; conditions: control = 100%
T4 construct: 6xHis (N); made in house; host or cells: Escherichia coli BL21-codonplus(DE3)-RIPL (PYL); BL21(DE3)pLysS (HAB1)
T4 sequence (Q8S8E3 1-215): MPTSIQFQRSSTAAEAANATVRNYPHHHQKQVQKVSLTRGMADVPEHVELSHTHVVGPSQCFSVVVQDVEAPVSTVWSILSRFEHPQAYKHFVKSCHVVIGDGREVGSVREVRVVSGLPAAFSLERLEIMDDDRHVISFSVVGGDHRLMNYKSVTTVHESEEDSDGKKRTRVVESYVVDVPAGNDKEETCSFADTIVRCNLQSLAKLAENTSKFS
Description: as §1

PYL8 = target: T5, PYL8 (Arabidopsis thaliana, UniProt Q9FGM1); assay: Protein dephosphorylation enzyme activity test, PYL8; type: biochemical, thale cress; conditions: control = 100%
T5 construct: 6xHis (N); made in house; host or cells: Escherichia coli BL21-codonplus(DE3)-RIPL (PYL); BL21(DE3)pLysS (HAB1)
T5 sequence (Q9FGM1 1-188): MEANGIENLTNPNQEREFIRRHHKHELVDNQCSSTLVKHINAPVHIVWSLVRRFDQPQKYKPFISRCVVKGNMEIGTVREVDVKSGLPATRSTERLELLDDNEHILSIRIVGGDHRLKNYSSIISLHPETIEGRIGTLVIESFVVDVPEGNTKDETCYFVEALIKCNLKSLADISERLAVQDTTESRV
Description: as §1

PYL10 = target: T6, PYL10 (Arabidopsis thaliana, UniProt Q8H1R0); assay: Protein dephosphorylation enzyme activity test, PYL10; type: biochemical, thale cress; conditions: control = 100%
T6 construct: 6xHis (N); made in house; host or cells: Escherichia coli BL21-codonplus(DE3)-RIPL (PYL); BL21(DE3)pLysS (HAB1)
T6 sequence (Q8H1R0 1-183): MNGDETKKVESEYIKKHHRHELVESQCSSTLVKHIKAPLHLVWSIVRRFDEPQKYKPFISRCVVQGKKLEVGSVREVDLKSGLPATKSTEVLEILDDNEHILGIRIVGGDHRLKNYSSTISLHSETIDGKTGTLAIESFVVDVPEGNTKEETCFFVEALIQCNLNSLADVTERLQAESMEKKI
Description: as §1

recombined PYL5 = target: T7, recombined PYL5 (Arabidopsis thaliana, UniProt Q9FLB1); assay: Bonding affinity measurement using an isothermal titration calorimeter; type: binding, thale cress; conditions: ITC, 20° C., sodium phosphate buffer
T7 construct: 6xHis (N); made in house; host or cells: Escherichia coli BL21-codonplus(DE3)-RIPL
T7 sequence (Q9FLB1 1-203): T3 sequence (Q9FLB1 1-203)
Description: A sodium phosphate buffer solution of a recombined PYL5 was prepared in the same procedure as in Test Example 5, and put in a reaction cell of an isothermal titration calorimeter (GE Healthcare, MicroCal iTC200), and a sodium phosphate buffer solution of the compound of Example 1 was put in the syringe. Then, the calorimeter was set to 20° C. and the measurement was carded out. The same measurement as above was also carried out for the compounds of Examples 7 to 9.

| HAB1 Specific activity (%) PYL1 (PYL1; sample alone) [%] | HAB1 Specific activity (%) PYL4 (PYL4; sample alone) [%] | HAB1 Specific activity (%) PYL5 (PYL5; sample alone) [%] | HAB1 Specific activity (%) PYL6 (PYL6; sample alone) [%] | HAB1 Specific activity (%) PYL8 (PYL8; sample alone) [%] | HAB1 Specific activity (%) PYL10 (PYL10; sample alone) [%] | Kd (recombined PYL5) [µM] | ΔG (recombined PYL5) [kcal/mol] | ΔH (recombined PYL5) [kcal/mol] | −TΔS (recombined PYL5) [kcal/mol] | HAB1 Specific activity (%) PYL1 (PYL1; ABA + compound) [%] | HAB1 Specific activity (%) PYL5 (PYL5; ABA + compound) [%] | HAB1 Specific activity (%) PYL6 (PYL6; ABA + compound) [%] | HAB1 Specific activity (%) PYL8 (PYL8; ABA + compound) [%] | HAB1 Specific activity (%) PYL10 (PYL10; ABA + compound) [%] | HAB1 Specific activity (%) PYL4 (PYL4; ABA + compound) [%] | SMILES |
| --- | --- | --- | --- | --- | --- | --- | --- | --- | --- | --- | --- | --- | --- | --- | --- | --- |
| 98.1 | 108 | 85.8 | 122 | 105 | 93.7 | 0.07 ± 0.02 | -9.6 ± 0.1 | -7.9 ± 0.1 | -1.7 | 55.6 | 87 | 87.6 | 76.9 | 90.7 |  | CC1=C[C@@H](OCC#Cc2ccccc2)CC(C)(C)[C@@]1(O)/C=C/C(C)=C\C(=O)O [Example 1, (2Z,4E)-5-((1S,4S)-1-hydroxy-2,6,6-trimethyl-4-((3-phenylprop-2-yn-1-yl)oxy)cyclohex-2-en-1-yl)-3-methylpenta-2,4-dienoic acid] |
| 136 | 119 | 85.5 | 93.5 | 98.5 | 99.0 | 0.07 ± 0.02 | -9.6 ± 0.2 | -5.5 ± 0.1 | -4.2 | 87.7 | 74.6 | 61.0 | 98.7 | 82.5 | 101 | CC1=C[C@@H](OCC#Cc2ccc(C)cc2)CC(C)(C)[C@@]1(O)/C=C/C(C)=C\C(=O)O [Example 7] |

| SMILES | HAB1 Specific activity (%) PYL1 (PYL1; sample alone) [%] | HAB1 Specific activity (%) PYL4 (PYL4; sample alone) [%] | HAB1 Specific activity (%) PYL5 (PYL5; sample alone) [%] | HAB1 Specific activity (%) PYL6 (PYL6; sample alone) [%] | HAB1 Specific activity (%) PYL8 (PYL8; sample alone) [%] | HAB1 Specific activity (%) PYL10 (PYL10; sample alone) [%] | Kd (recombined PYL5) [µM] | ΔG (recombined PYL5) [kcal/mol] | ΔH (recombined PYL5) [kcal/mol] | −TΔS (recombined PYL5) [kcal/mol] | HAB1 Specific activity (%) PYL1 (PYL1; ABA + compound) [%] | HAB1 Specific activity (%) PYL5 (PYL5; ABA + compound) [%] | HAB1 Specific activity (%) PYL6 (PYL6; ABA + compound) [%] | HAB1 Specific activity (%) PYL8 (PYL8; ABA + compound) [%] | HAB1 Specific activity (%) PYL10 (PYL10; ABA + compound) [%] | HAB1 Specific activity (%) PYL4 (PYL4; ABA + compound) [%] |
| --- | --- | --- | --- | --- | --- | --- | --- | --- | --- | --- | --- | --- | --- | --- | --- | --- |
| CC1=CC(=O)CC(C)(C)[C@@]1(O)/C=C/C(C)=C\C(=O)O [ABA, abscisic acid] | 18.6 | 18.2 | 15.5 | 19.5 | 13.9 | 16.2 | 0.88 ± 0.11 | -8.1 ± 0.1 | -7.8 ± 0.1 | -0.3 |  |  |  |  |  |  |
